The test system of one data set is leukemia strain L1210. The experiment in a line: Antitumoral activity on leukemia L1210 i.p. in mice, unoxidized compounds (ICIG). It is filed as in vivo, mice (male B6 D2 F1 /OLA). To be noted: for survival rate after 60 days: at different doses; for I indices (in words): i.p., leukemia L1210. Here is the method:
The oncostatic activity of these nitrosated derivatives was determined at the I.C.I.G. in VILLEJUIF (Department of Prof. MATHE) following a described experimental protocol: M. HAYAT et al , Cancer Chemother. Pharmacol., 1979, 3, 217-221; R. MARAL et al., Eur. J. Med. Chem., submitted for publication.
(§1) Male B6 D2 F1 /OLA mice are inoculated intraperitoneally with 10^5 cells of the leukemia strain L1210 on day 0 and divided into groups. The first is the control group and the others are treated with the drugs at different concentrations on days 1, 5 and 9. The compounds are injected as a suspension in olive oil. The mortality of the animals is observed and the autopsy indicates whether it is due to leukemia or to the toxic action of the products.
(§2) The 50% lethal dose (LD50 acute) is determined by taking into account the mortality which has occurred before the 8th day among the animals treated on day D:1. The survival median of the treated animals (mT) and the control animals (mC) was established and Wilcoxon's non-parametric statistical test was applied. The results are considered positive if the index I [formula] is greater than 125 and the test Is significant at p≤0.05.

Data set [1] can be described thus: 50% lethal dose (LD50 acute) in mice. It is filed as in vivo, mice (male B6 D2 F1 /OLA). To be noted: mouse, in vivo, ip, mortality before the 8th day. Here is the method:
as §1, §2

In another data set the test system is mice. Nature of the data set: 50% lethal dose (LD50 acute) in mice. It is filed as in vivo, mice (male B6 D2 F1 /OLA). To be noted: i.p. Here is the method:
as §1, §2

For the next data set, the system named is Leukemia L 1210. The arrangement: key: N.S.: Not significant; .infin.: 50% more of the treated animals are cure. To be noted: days 1, 5 and 9, cited from earlier work.
In data set [2] the test system is Lewis pulmonary carcinoma. The arrangement: key: N.S.: Not significant; .infin.: 50% more of the treated animals are cure. To be noted: days 1, 5 and 9, cited from earlier work.
Another data set concerns Melanocarcinoma B 16. The arrangement: key: N.S.: Not significant; .infin.: 50% more of the treated animals are cure. To be noted: days 1, 5 and 9, cited from earlier work.
A further data set has as its system Glioma 26. The arrangement: key: N.S.: Not significant; .infin.: 50% more of the treated animals are cure. To be noted: days 1, 5 and 9, cited from earlier work.
Data set [3] deals with Mammary adenocarcinoma TM2. Also on record: key: N.S.: Not significant; .infin.: 50% more of the treated animals are cure. To be noted: days 1, 5 and 9, cited from earlier work.
In another data set the test system is Fibrosarcoma I.C.I.G. C1. Also on record: key: N.S.: Not significant; .infin.: 50% more of the treated animals are cure. To be noted: days 1, 5 and 9, cited from earlier work.
The test system of data set [4] is Carcinoma of the colon (colon 26). The arrangement: key: N.S.: Not significant; .infin.: 50% more of the treated animals are cure. To be noted: days 1, 5 and 9, cited from earlier work.
The subject of a further data set is Ovarian M 555. The arrangement: key: N.S.: Not significant; .infin.: 50% more of the treated animals are cure. To be noted: days 1, 5 and 9, cited from earlier work.

Where two headings read alike, the source gives them in different places. Some results are limits rather than exact numbers.

As to `O=NN(CCCl)C(=O)NCCS` [(1), N-[N-(2-Chloroethyl)-N-nitrosocarbamoyl]cysteamine], the “% of animals surviving to 60 days” value with leukemia strain L1210 (5 mg/kg i.p., days 1,5,9) amounted to 100%; in the data set with leukemia strain L1210 (10 mg/kg i.p., days 1,5,9), 100%; with leukemia strain L1210 (12.5 mg/kg i.p., days 1,5,9) it was 100%; with leukemia strain L1210 (15 mg/kg i.p., day +1), 100%. In addition, the “index I (survival median treated vs control)” value (shortened to “index I”) was “.infin. (50% or more of the animals survive to day +60)” in the data set on leukemia strain L1210 (5 mg/kg i.p., days 1,5,9); “.infin. (50% or more of the animals survive to day +60)” in the data set with leukemia strain L1210 (10 mg/kg i.p., days 1,5,9); “.infin. (50% or more of the animals survive to day +60)” with leukemia strain L1210 (12.5 mg/kg i.p., days 1,5,9); “.infin. (50% or more of the animals survive to day +60)” in the data set with leukemia strain L1210 (15 mg/kg i.p., day +1). Besides, in the data set on leukemia strain L1210, the “survival rate after 60 days” value came out at 100%. The “I indices (in words)” value in the data set with leukemia strain L1210 is “at infinity”. In data set [1], this compound yielded an LD50 of 19 to 25 mg/kg.
In the case of `CSCCNC(=O)N(CCCl)N=O` [(3), S-methyl-N-[N-(2-chloroethyl)-N-nitrosocarbamoyl] cysteamine], the “index I” value in the data set on leukemia strain L1210 (5 mg/kg i.p., days 1,5,9) is “.infin. (50% or more of the animals survive to day +60)”. Moreover, in the data set on leukemia strain L1210 (12.5 mg/kg i.p., days 1,5,9), the “% of animals surviving to 60 days” value was determined as 100% and the “index I” value is listed as “.infin. (50% or more of the animals survive to day +60)”. Besides, in the data set with leukemia strain L1210 (15 mg/kg i.p., days 1,5,9), the “% of animals surviving to 60 days” value came out at 87%. For the same compound, in the data set on leukemia strain L1210, the “survival rate after 60 days” value is given as 100% and the “I indices (in words)” value is listed as “at infinity”. The LD50 in data set [1] lay within 19 to 25 mg/kg.
In the case of `CC(=O)SCCNC(=O)N(CCCl)N=O` [(5), S-acetyl-N-[N-(2-chloroethyl)-N-nitrosocarbamoyl] cysteamine], the “% of animals surviving to 60 days” value with leukemia strain L1210 (10 mg/kg i.p., days 1,5,9) is on record as 14%; with leukemia strain L1210 (12.5 mg/kg i.p., days 1,5,9), 100%; with leukemia strain L1210 (15 mg/kg i.p., days 1,5,9) it was 80%; with leukemia strain L1210 (20 mg/kg i.p., days 1,5,9), 25%. For the same compound, the “index I” value is reported as “.infin. (50% or more of the animals survive to day +60)” in the data set on leukemia strain L1210 (10 mg/kg i.p., days 1,5,9) and “.infin. (50% or more of the animals survive to day +60)” in the data set on leukemia strain L1210 (12.5 mg/kg i.p., days 1,5,9). The “survival rate after 60 days” value in the data set with leukemia strain L1210 is given as 100%. In addition, the “I indices (in words)” value in the data set with leukemia strain L1210 is on record as “at infinity”. In data set [1], this compound displayed a median lethal dose (LD50) of 19 to 25 mg/kg.
In turn, `O=NN(CCCl)C(=O)NCCSC(c1ccccc1)(c1ccccc1)c1ccccc1` [(9), S-Trityl-N-[N-(2-chloroethyl)-N-nitrosocarbamoyl]cysteamine] yielded an LD50 in data set [1] above 625 mg/kg. For the same compound, the “toxicity (in words)” value with mice is recorded as “not toxic”.
Consider `O=NN(CCCl)C(=O)N[C@H]1C(O)O[C@H](CO)[C@@H](O)[C@@H]1O` (stereo partly drawn) [CHLOROZOTOCIN, chlorozotocin], for which the “Increase in the survival time (I.L.S.: T/C × 100)” value (“Increase in the survival time” for short) with Leukemia L 1210 (15 mg/kg i.p.) was “N.S”; in data set [2] (15 mg/kg i.p.), “N.S”; in the data set with Melanocarcinoma B 16 (15 mg/kg i.p.), “N.S”; in the data set with Glioma 26 (15 mg/kg i.p.), “N.S”; in data set [3] (15 mg/kg i.p.), “N.S”; in the data set on Fibrosarcoma I.C.I.G. C1 (15 mg/kg i.p.), “.infin. (50% more of the treated animals are cure)”. The “Increase in the survival time” value (in data set [4] (15 mg/kg i.p.); with Ovarian M 555 (15 mg/kg i.p.)) was “.infin. (50% more of the treated animals are cure)” each time.
In the case of `O=NN(CCCl)C(=O)NCCO` [H.E.C.N.U., 1-(2-hydroxyethyl)-3-(2-chloroethyl) 3-nitrosourea], the “Increase in the survival time” value is reported as “.infin. (50% more of the treated animals are cure)” with Leukemia L 1210 (10 mg/kg i.p.); “.infin. (50% more of the treated animals are cure)” in data set [2] (10 mg/kg i.p.); 198 in the data set with Melanocarcinoma B 16 (10 mg/kg i.p.); 182 in the data set on Glioma 26 (10 mg/kg i.p.); 165 in [3] (10 mg/kg i.p.); “N.S” in the data set with Fibrosarcoma I.C.I.G. C1 (10 mg/kg i.p.). Also, the “Increase in the survival time” value in data set [4] (10 mg/kg i.p.) is reported as “.infin. (50% more of the treated animals are cure)”; with Ovarian M 555 (10 mg/kg i.p.), 210.
Take `CC1(C)O[C@@H]2[C@@H](COC(=O)c3ccc([N+](=O)[O-])cc3)OC(NC(=O)N(CCCl)N=O)[C@@H]2O1` (stereo partly drawn) [R.F.C.N.U., 1-(2-chloroethyl)-3-[1'-(5'-pnitrobenzoyl 2', 3'-isopropylidene)alphabeta D-ribofuranosyl]-1-nitrosourea]: the “Increase in the survival time” value in the data set on Leukemia L 1210 (20 mg/kg i.p.) is on record as 167; in [2] (20 mg/kg i.p.), “N.S”; with Melanocarcinoma B 16 (20 mg/kg i.p.), 144; in the data set on Glioma 26 (20 mg/kg i.p.), “N.S”; in [3] (20 mg/kg i.p.), “N.S”; with Fibrosarcoma I.C.I.G. C1 (20 mg/kg i.p.), “.infin. (50% more of the treated animals are cure)”. In addition, the “Increase in the survival time” value (in [4] (20 mg/kg i.p.); in the data set on Ovarian M 555 (20 mg/kg i.p.)) was “N.S” in each case.
On to `CC(=O)O[C@@H]1[C@H](OC(C)=O)COC(NC(=O)N(CCCl)N=O)[C@@H]1OC(C)=O` (stereo partly drawn) [R.P.C.N.U., 1-(2-chloroethyl)-3-[(2'-3'-4° trioacetyl)alphabeta D-ribopyrannosyl]-1-nitrosourea], for which the “Increase in the survival time” value is “N.S” with Leukemia L 1210 (15 mg/kg i.p.); “N.S” in [2] (15 mg/kg i.p.); 151 in the data set on Melanocarcinoma B 16 (15 mg/kg i.p.); 127 in the data set with Glioma 26 (15 mg/kg i.p.); 134 in data set [3] (15 mg/kg i.p.); “N.S” in data set [4] (15 mg/kg i.p.). For the same compound, in the data set with Ovarian M 555 (15 mg/kg i.p.), the “Increase in the survival time” value was “.infin. (50% more of the treated animals are cure)”.
